Experimental data: patent publication US20070218456A1, “CELLULAR ASSAYS FOR SIGNALING RECEPTORS” (INVITROGEN CORPORATION, priority 2006, published 2007)
In brackets after ≈: the same amount, converted by molar mass.

Columns and labels:
[1] = system: T-REx™-GPR23-CRE-bla-CHO-K1 clone H6-E2; assay: T-REx-GPR23-CRE-bla-CHO-K1 clone H6-E2 beta-lactamase reporter assay (induction); format: cell-based, Chinese hamster; details: for EC50: Cricetulus griseus
Protocol: Six clones selected for further testing were expanded and retested for their inducible GPR23 specific activity. The clones were plated at 25,000 cells per well in a 96 well black walled clear bottom tissue culture assay plate. The plates were than placed at 37° C. 5% CO2 for 24 hrs to allow the cells to attach to the assay plate. The complete media was then removed from the plate and replaced with assay media (DMEM+0.1% BSA) containing 100 ng/ml pertussis toxin with or without 1 μg/ml tetracycline. The plates were placed at 37° C. 5% CO2 for 16 hrs to allow the induced expression of the GPR23 receptor. The cells were then loaded with LiveBLAzer™-FRET B/G substrate (2 μM) containing solution D for 2 hrs. To determine the optimal cell density for this assay the cells were plated at 2,500, 5,000, 10,000, and 20,000 cells per well in a 384 well black walled clear bottom tissue culture assay plate in complete media (DMEM+10% FBS). The plates were than placed at 37° C. 5% CO2 for 24 hrs to allow the cells to attach to the assay plate. The complete media was then removed from the plate and replaced with assay media (DMEM+0.1% BSA) containing 100 ng/ml pertussis toxin and a four fold dilution series of doxycycline starting at 1 μg/ml. The plates were placed at 37° C./5% CO2 for 16 hrs to allow the induced expression of the GPR23 receptor. The cells were then loaded with LiveBLAzer™-FRET B/G substrate (2 μM) containing solution D for 2 hrs. The cells were plated at 20,000 cells per well in a 384 well black walled clear bottom tissue culture assay plate in complete media (DMEM+10% FBS). The plates were then placed at 37° C. 5% CO2 for 6 hrs to allow the cells to attach to the assay plate. The complete media was then removed from the plate and replaced with assay media (DMEM+0.1% BSA) containing 100 ng/ml pertussis toxin, 0%, 0.25%, 0.5%, or 1.0% DMSO, and a three fold dilution series of doxycycline starting at 1 μg/ml. The plates were placed at 37° C./5% CO2 for 16 hrs to allow the induced expression of the GPR23 receptor. The cells were then loaded with LiveBLAzer™-FRET B/G substrate (2 μM) containing solution D for 2 hrs. The cells were plated at 20,000 cells per well in a 384 well black walled clear bottom tissue culture assay plate in complete media (DMEM+10% FBS). The plates were than placed at 37° C. 5% CO2 for 6 hrs to allow the cells to attach to the assay plate. The complete media was then removed from the plate and replaced with assay media (DMEM+0.1% BSA) containing 100 ng/ml pertussis toxin, 0.5% DMSO, and a three fold dilution series of doxycycline starting at 1 μg/ml. The plates were placed at 37° C. 5% CO2 for 16, 20 or 24 hrs to allow the induced expression of the GPR23 receptor. The cells were then loaded with LiveBLAzer™-FRET B/G substrate (2 μM) containing solution D for 2 hrs. Dose response of T-REx-GPR23-CRE-bla CHO-K1 cells to Doxycycline. T-REx-GPR23-CRE-bla CHO-K1 cells were plated in Growth Media (+) and allowed to attach to the tissue culture plate for 6 hrs. They were then induced for GPR23 expression overnight with doxycycline for 16 hrs in Assay Media. Cells were then loaded with LiveBLAzer™-FRET B/G Substrate (CCF4-AM) for 2 hours. Fluorescence emission values at 460 nm and 530 nm were obtained using a standard florescence plate reader and the Blue/Green Emission Ratios were plotted against the indicated concentrations of doxycycline (FIG. 40).

[2] = system: TREx™-mG2A-NFAT-bla Freestyle293F cells; assay: TREx-mG2A-NFAT-bla Freestyle293F (mouse G2A) doxycycline response; format: cell-based; details: Homo sapiens, FreeStyle 293-F, 16 h
Protocol: TREx™-mG2A-NFAT-bla Freestyle293F cells were stimulated for 16 hours with doxycycline in the presence of 0.5% DMSO. Cells were then loaded with LiveBLAzer™-FRET B/G (CCF4-AM) for 2 hours. Fluorescence emission values at 460 nm and 530 nm are obtained using a standard florescence plate reader and the Blue/Green Emission ratios are plotted against the concentration of the stimulant.

`C[C@H]1c2cccc(O)c2C(=O)C2=C(O)[C@]3(O)C(=O)C(C(N)=O)=C(O)[C@@H](N(C)C)[C@@H]3[C@@H](O)[C@@H]21` [Doxycycline] was tested, and the maximum response ratio ([1]; 20,000 cells per well) was 5.7 fold, the EC50 ([1]; 16 h, 0% DMSO, 20,000 cells per well) was 3.3 ng/mL and the EC50 ([1]; 16 h, 0.25% DMSO, 20,000 cells per well) was 4 ng/mL. For the same compound, the EC50 ([1]; 16 h, 0.5% DMSO, 20,000 cells per well) was 4 ng/mL, the EC50 ([1]; 16 h, 1.0% DMSO, 20,000 cells per well) was 5.1 ng/mL and the EC50 ([1]; 16 h, 2,500 cells/well, 16 hrs induction) was 1.3 ng/mL. For the same compound, the EC50 ([1]; 16 h, 5,000 cells/well, 16 hrs induction) was 1 ng/mL, the EC50 ([1]; 16 h, 10,000 cells/well, 16 hrs induction) was 1.6 ng/mL and the EC50 ([1]; 16 h, 20,000 cells/well, 16 hrs induction) was 2 ng/mL. For the same compound, the EC50 ([1]; 16 h, 16 hours induction, 0.5% DMSO) was 4 ng/mL, the EC50 ([1]; 20 h, 20 hours induction, 0.5% DMSO) was 1.9 ng/mL and the EC50 ([1]; 24 h, 24 hours induction, 0.5% DMSO) was 2 ng/mL. It also gave an EC50 ([1]; representative data, 16 hrs induction, 2 hours loading) of 1.7 nM, an EC50 ([2]; clone #2, 0.5% DMSO) of 0.386 ng/mL (≈ 0.869 nM) and an EC50 ([2]; clone #25, 0.5% DMSO) of 1.12 ng/mL (≈ 2.52 nM). The EC50 ([2]; clone #53, 0.5% DMSO) was 0.524 ng/mL (≈ 1.18 nM).
